{"source": "patent US20100022629A1", "about": "“Dietary Methods and Compositions for Enhancing Metabolism and Reducing Reactive Oxygen Species” (Elixirin, priority 2006, published 2010)", "key": {"[1]": {"system": "men and women diagnosed with a recent MI", "details": "4 grams/day for 12 months plus standard pharmacological treatment; control group 12.5%; cited from earlier work"}, "Fischer 344 male rats": {"system": "Fischer 344 male rats", "test": "Morris water maze spatial memory test", "format": "in vivo", "details": "fed 7 weeks, 5 per group, SD around 20%", "from_the_text": "FIG. 1 of 2 depicts measurements of spatial memory in (Fischer 344 male rats) subjected to a water maze test, after treatment with carnitine, lipoic acid, and/or polyphenol. […] The Morris maze task tests spatial memory by requiring rats to find a submerged platform in a pool of water using external visual cues (Morris, R. 1984; J. Neurosci. Methods, 11:47-60; Schenk, F. and Morris, R, Exp. Brain Res. 58:11-28, 1985). The rats in the experimental group (5 each) were fed either 0.5% (wt/vol) acetyl-L-carnitine in water, 1.0% (wt/vol) polyphenol in water; 0.2% (wt/wt) lipoic acid in AIN93M diet, or a combination of the above. Rats were acclimated for one week before experiments. Rats were fed for the above treatment for 7 weeks before tests. Trials (4 consecutive days, 4 trials per day) were conducted and the results averaged. The standard deviation is around 20%. Control rats were fed with water and AIN93M diet only."}, "[2]": {"system": "8-hydroxy-2′-deoxyguanosine/8-hydroxyguanosine", "test": "Oxidation level of DNA in hippocampus sections (anti-8-hydroxy-2′-deoxyguanosine/8-hydroxyguanosine immunocytochemistry)", "format": "in vivo, rats", "details": "rat hippocampus, fed 7 weeks, mean of 5 animals, SD about 15%", "from_the_text": "The rats in the experimental group (5 each) were fed either 0.5% (wt/vol) acetyl-L-carnitine in water, 1.0% (wt/vol) polyphenol in water; 0.2% (wt/wt) lipoic acid in AIN93M diet, or a combination of the above. Rats were acclimated for one week before experiments. Rats were fed for the above treatment for 7 weeks before tests. Control rats were fed with water and AIN93M diet only. For assaying DNA oxidation, rats from each treatment group (5 animals per group) was anesthetized with ether and perfused with paraformaldehyde. The brain was removed and postfixed for paraffin sections. Sections of hippocampus were incubated with anti-8-hydroxy-2′-deoxyguanosine/8-hydroxyguanosine and visualized by using standard immunocytochemical methods. Quantification of oxidation was done as described in Liu, J K, et al., (Proc. Natl. Acad. Sci. USA, 99:[…], 2002). Values are a mean of 5 animals. The standard deviation is about 15%."}}, "data": [{"smiles": "C[N+](C)(C)C[C@H](O)CC(=O)[O-]", "note": "[L-carnitine]", "values": [{"measurement": "mortality after one year of treatment", "setting": "[1]", "value": 1.2, "unit": "%"}]}, {"smiles": "C[N+](C)(C)CC(O)CC(=O)[O-]", "note": "(centres unmarked) [carnitine]", "values": [{"measurement": "mastery of the water maze over no treatment", "setting": "Fischer 344 male rats", "value": "approximately 80%"}, {"measurement": "DNA oxidation level compared with rats having no treatment", "setting": "[2]", "value": "approximately 112%"}]}, {"smiles": "O=C(O)CCCCC1CCSS1", "note": "(centres unmarked) [lipoic acid, 1,2-dithiolane-3-pentanoic acid]", "values": [{"measurement": "mastery of the water maze over no treatment", "setting": "Fischer 344 male rats", "value": "~79", "unit": "%"}, {"measurement": "DNA oxidation level compared with rats having no treatment", "setting": "[2]", "value": "~82", "unit": "%"}]}]}
